# Experimental data from publication PMC4556614 (PLoS ONE, 2015).
# Assays:
# OCT2 [1] = biological target: T1, OCT2 (Homo sapiens, UniProt O15244); experiment: Inhibition of OCT2-mediated [3H]MPP+ uptake in HEK-OCT2 cells; conditions: for inhibition at 3 min, 20 µM / inhibition at 3 min, 200 µM: pH 7.3, probe [3H]MPP+, 50 µM
# Method: (§1) For the transport assays HEK cell lines stably transfected with human OCT2 (HEK-OCT2) or the vector only (HEK-VC) were used. The HEK-OCT2 cell line was established and characterized previously. HEK-OCT2 and HEK-VC cells were seeded in poly-D-lysine (Sigma Aldrich, Taufkirchen, Germany) coated 48-well-plates at a density of 1.2 x 10^5 cells/well. […] Uptake was stopped by washing the cells three times with ice-cold uptake buffer. Afterwards, cells were lysed with 5 mM Tris buffer (pH 7.3) containing 0.1% Triton X-100. The intracellular accumulation of radioactivity was determined by liquid scintillation counting (PerkinElmer, Rodgau-Jügesheim, Germany) and protein concentration of each lysate was measured with bicinchonic acid assay (BCA Protein Assay Kit, Thermo Fisher Scientific, Waltham, MA, USA). We performed two to eight experiments each on at least two separate days, i.e., n = 4–16.
# OCT2 [2] = biological target: T1, OCT2; experiment: in vitro; conditions: for % Inhibition of OCT2-dependent MF uptake at 20 µM (mean ± SEM) / % Inhibition of OCT2-dependent MF uptake at 200 µM (mean ± SEM) / inhibition at 3 min, 20 µM / inhibition at 3 min, 200 µM: human; for % Inhibition of OCT2-dependent MF uptake at 20 µM (mean ± SEM) / % Inhibition of OCT2-dependent MF uptake at 200 µM (mean ± SEM): pH 7.3; for inhibition at 3 min, 20 µM / inhibition at 3 min, 200 µM: pH 7.3, probe [14C]metformin, 1000 µM, metformin 1000 μM, net uptake HEK-OCT2 minus HEK-VC; for inhibition at 3 min, 20 µM: % Inhibition of OCT2-dependent MF uptake at 20 µM (mean ± SEM), test drug 20 µM; for inhibition at 3 min, 200 µM: % Inhibition of OCT2-dependent MF uptake at 200 µM (mean ± SEM), test drug 200 µM
# Method: as §1
# Experimental half-maximal inhibitory concentrations (IC50 values) were measured as the substrate uptake in the presence of increasing concentrations of test drugs. These experiments were performed as described above (three experiments each on two separate days, i.e., n = 6). IC50 values were calculated with GraphPad Prism 5.0 (GraphPad Software, San Diego, CA, USA). IC50 was estimated by a sigmoidal inhibition model and was fit to the equation V = V 0 / (1 + (I / IC50 ) ^n ) by nonlinear regression. V is the net uptake in the presence of the inhibitor, V 0 is the net uptake in the absence of the inhibitor, I is the concentration of the inhibitor and n is the slope.
# [3] = test drug 20 µM, MPP+ 50 μM, 3 min, net uptake HEK-OCT2 minus HEK-VC
# [4] = test drug 200 µM, MPP+ 50 μM, 3 min, net uptake HEK-OCT2 minus HEK-VC
# T1 sequence (O15244 whole entry): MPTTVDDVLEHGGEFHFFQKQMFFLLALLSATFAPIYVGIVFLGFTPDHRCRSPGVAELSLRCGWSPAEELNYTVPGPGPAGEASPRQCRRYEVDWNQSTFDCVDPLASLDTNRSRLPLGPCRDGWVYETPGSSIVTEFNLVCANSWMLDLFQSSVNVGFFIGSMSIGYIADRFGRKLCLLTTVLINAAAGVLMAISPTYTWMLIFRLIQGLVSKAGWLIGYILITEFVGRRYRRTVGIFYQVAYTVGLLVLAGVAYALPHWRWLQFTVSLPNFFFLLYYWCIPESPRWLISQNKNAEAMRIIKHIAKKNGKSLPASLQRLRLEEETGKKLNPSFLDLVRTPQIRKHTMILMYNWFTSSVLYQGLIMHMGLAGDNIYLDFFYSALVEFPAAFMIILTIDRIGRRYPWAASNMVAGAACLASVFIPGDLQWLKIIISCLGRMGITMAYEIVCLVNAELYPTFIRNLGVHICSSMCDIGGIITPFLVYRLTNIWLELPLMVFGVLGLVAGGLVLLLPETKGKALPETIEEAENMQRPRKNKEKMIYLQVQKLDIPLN
Structure (SMILES),% Inhibition of OCT2-dependent MPP+ uptake at 20 µM (mean ± SEM) (OCT2 [1]; [3]),% Inhibition of OCT2-dependent MPP+ uptake at 200 µM (mean ± SEM) (OCT2 [1]; [4]),% Inhibition of OCT2-dependent MF uptake at 20 µM (mean ± SEM) (OCT2 [2]),% Inhibition of OCT2-dependent MF uptake at 200 µM (mean ± SEM) (OCT2 [2]),other results
Cc1nc2n(c(=O)c1CCN1CCC(c3noc4cc(F)ccc34)CC1)CCCC2 [Risperidone],57.8 ± 5.2%,78.4 ± 1.5%,81.0 ± 4.4,98.3 ± 3.1,
CCCC(CCC)C(=O)O [Valproic acid],-17.3 ± 9.5%,-29.0 ± 9.2%,18.5 ± 7.6,27.7 ± 1.9,
CC(=O)N[C@@H](CS)C(=O)O [Acetylcysteine],-35.6 ± 7.7%,-36.0 ± 3.2%,13.2 ± 6.3%,11.0 ± 9.4%,
CC1CCN(CCCC(=O)c2ccc(F)cc2)CC1 [Melperone],8.6 ± 10.1%,69.7 ± 3.8%,75.0 ± 3.4,94.9 ± 4.2,
Cc1cc2c(s1)Nc1ccccc1N=C2N1CCN(C)CC1 [Olanzapine],83.5 ± 9.4%,109.7 ± 2.8%,-7.5 ± 5.7,74.9 ± 1.8,"% Inhibition of OCT2-dependent MPP+ uptake at 20 µM (mean ± SEM) (OCT2 [1]; test drug 20 µM, MPP+ 50 μM, 3 min, net uptake HEK-OCT2 minus HEK-VC, listed as olanzapine): most potent inhibitors"
C[C@]12C=CC(=O)C=C1CC[C@@H]1[C@@H]2[C@@H](O)C[C@@]2(C)[C@H]1CC[C@]2(O)C(=O)CO [Prednisolone],42.1 ± 4.4%,68.6 ± 2.8%,66.0 ± 2.5,91.5 ± 0.5,
C[C@H]1c2cccc(O)c2C(=O)C2=C(O)[C@]3(O)C(=O)C(C(N)=O)=C(O)[C@@H](N(C)C)[C@@H]3[C@@H](O)[C@@H]21 [Doxycycline],-12.9 ± 13.1%,-16.6 ± 11.7%,-21.8 ± 1.9,1.9 ± 9.1,
CNCC[C@H](Oc1cccc2ccccc12)c1cccs1 [Duloxetine],,,76.5 ± 0.9,98.3 ± 0.2,"% Inhibition of OCT2-dependent MPP+ uptake at 20 µM (mean ± SEM) (OCT2 [1]; human, pH 7.3): 23.3 ± 6.0; % Inhibition of OCT2-dependent MPP+ uptake at 200 µM (mean ± SEM) (OCT2 [1]; human, pH 7.3): 86.4 ± 5.1"
CC(C)NCC(O)COc1ccc(COCCOC(C)C)cc1 (stereo not shown) [Bisoprolol],-16.1 ± 2.2%,11.8 ± 5.5%,57.2 ± 4.0%,75.8 ± 4.5%,
Cc1ncsc1CCCl [Clomethiazole],-6.7 ± 9.2%,-147.3 ± 23.7%,-9.2 ± 6.8,28.7 ± 3.9,
CNCCC(Oc1ccc(C(F)(F)F)cc1)c1ccccc1 (stereo not shown) [Fluoxetine],20.2 ± 3.5%,91.8 ± 2.9%,79.0 ± 0.9,98.5 ± 1.2,
O=C(O)Cc1ccccc1Nc1c(Cl)cccc1Cl [Diclofenac],8.8 ± 8.9%,24.0 ± 4.0%,14.3 ± 8.8,59.1 ± 6.5,
COC(=O)C1=C(C)NC(C)=C(C(=O)OC(C)(C)CN(C)CCC(c2ccccc2)c2ccccc2)C1c1cccc([N+](=O)[O-])c1 (stereo not shown) [Lercanidipine],,,,,"inhibition at 3 min, 20 µM (OCT2 [1]; human): -13.3 ± 8.6%; inhibition at 3 min, 200 µM (OCT2 [1]; human): -9.3 ± 3.6%; inhibition at 3 min, 20 µM (OCT2 [2]): 7.8 ± 3.8%; inhibition at 3 min, 200 µM (OCT2 [2]): -20.4 ± 11.1%"
COC(=O)C(c1ccccc1)C1CCCCN1 (stereo not shown) [Methylphenidate],,,17.9 ± 4.6,79.6 ± 2.3,"% Inhibition of OCT2-dependent MPP+ uptake at 20 µM (mean ± SEM) (OCT2 [1]; human, pH 7.3): 11.5 ± 8.9; % Inhibition of OCT2-dependent MPP+ uptake at 200 µM (mean ± SEM) (OCT2 [1]; human, pH 7.3): 31.6 ± 4.7"
Nc1nc(N)c2nc(-c3ccccc3)c(N)nc2n1 [Triamterene],6.6 ± 11.2%,17.5 ± 3.8%,48.0 ± 5.1,92.0 ± 2.1,
CC(C)n1c(/C=C/C(O)CC(O)CC(=O)O)c(-c2ccc(F)cc2)c2ccccc21 (stereo not shown) [Fluvastatin],-10.1 ± 6.1%,5.8 ± 9.1%,-21.1 ± 10.3,32.5 ± 8.1,
Cn1c(=O)c2[nH]cnc2n(C)c1=O [Theophylline],-12.9 ± 5.7%,-16.7 ± 6.8%,-21.5 ± 13.0,-36.6 ± 10.9,
CCN(C)C(=O)Oc1cccc([C@H](C)N(C)C)c1 [Rivastigmine],25.1 ± 9.1%,59.4 ± 4.6%,51.8 ± 4.0,91.4 ± 1.5,
NCCCC[C@H](N[C@@H](CCc1ccccc1)C(=O)O)C(=O)N1CCC[C@H]1C(=O)O [Lisinopril],16.0 ± 9.0%,9.8 ± 11.8%,-10.3 ± 12.9,2.9 ± 9.0,
OC(CNCC(O)C1CCc2cc(F)ccc2O1)C1CCc2cc(F)ccc2O1 (stereo not shown) [Nebivolol],-13.7 ± 13.3%,43.2 ± 3.3%,61.4 ± 10.4,75.2 ± 10.8,
CCN1CCCC1CNC(=O)c1cc(S(=O)(=O)CC)c(N)cc1OC (stereo not shown) [Amisulpride],,,,,"inhibition at 3 min, 20 µM (OCT2 [1]; human): 25.5 ± 7%; inhibition at 3 min, 200 µM (OCT2 [1]; human): 51.3 ± 6.7%; inhibition at 3 min, 20 µM (OCT2 [2]): 52 ± 2.1%; inhibition at 3 min, 200 µM (OCT2 [2]): 91.7 ± 0.7%"
CCC1=C(C)CN(C(=O)NCCc2ccc(S(=O)(=O)NC(=O)N[C@H]3CC[C@H](C)CC3)cc2)C1=O [Glimepiride],31.1 ± 7.6%,53.8 ± 15.2%,66.8 ± 2.9,65.6 ± 4.6,
CN[C@H]1CC[C@@H](c2ccc(Cl)c(Cl)c2)c2ccccc21 [Sertraline],43.6 ± 2.9%,96.1 ± 1.7%,88.4 ± 2.1,100.5 ± 0.7,"IC50 values, OCT2-mediated metformin transport (in words) (OCT2 [2]; potent inhibitors, confirmed previous findings [19]-[21]): low micromolar range"
